Test results published in US9758492B2, “IDO inhibitors” (Bristol-Myers Squibb Company, priority 2013, dated 2017).
pIC50: −log10 of the molar value.

biological target: IDO (Homo sapiens, UniProt P14902); test: LLE_IDO_ABS_DR (IDO assay)
Sequence (P14902 whole entry): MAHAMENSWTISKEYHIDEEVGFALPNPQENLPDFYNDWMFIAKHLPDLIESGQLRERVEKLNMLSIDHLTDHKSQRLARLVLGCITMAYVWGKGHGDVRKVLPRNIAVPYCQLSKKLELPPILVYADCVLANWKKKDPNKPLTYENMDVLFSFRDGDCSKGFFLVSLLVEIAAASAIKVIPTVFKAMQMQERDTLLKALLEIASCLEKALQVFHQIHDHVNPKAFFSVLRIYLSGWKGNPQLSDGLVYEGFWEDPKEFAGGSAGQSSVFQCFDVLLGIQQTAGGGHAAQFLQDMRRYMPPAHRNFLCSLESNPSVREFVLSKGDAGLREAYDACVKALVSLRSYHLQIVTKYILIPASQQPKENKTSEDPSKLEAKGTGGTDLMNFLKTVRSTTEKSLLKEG

Structure (SMILES)	pIC50
CCC1CCCCN1c1ccc(-c2ccccc2-c2nnn[nH]2)cc1NC(=O)Nc1ccccc1F (stereo not shown) [Example 109, 1-(4-(2-ethylpiperidin-1-yl)-2′-(1H-tetrazol-5-yl)biphenyl-3-yl)-3-(2-fluorophenyl)urea]	6.39
[2H]C([2H])(C(C)C)N(c1ccc(-c2cc(F)ccc2C(=O)O)cc1NC(=O)Nc1ccc(C)cc1)C1CCCCC1 [Example 31, 4′-(Cyclohexyl(1,1-dideutero-2-methylpropyl)amino)-5-fluoro-3′-(3-p-tolylureido)biphenyl-2-carboxylic acid]	8.29
CC(C)CN(CC(C)C)c1ccc(-c2ccccc2-c2nnn[nH]2)cc1NC(=O)Nc1ccc(F)cc1F [Example 137, 1-(2,4-difluorophenyl)-3-(4-(diisobutylamino)-2′-(1H-tetrazol-5-yl)biphenyl-3-yl)urea]	8.28
CC(C)CN(c1ccc(-c2ccc(Cl)cc2C(=O)O)cc1NC(=O)Nc1ccccc1F)C1CCCCC1 [Example 123, 4-chloro-4′-(cyclohexyl(isobutyl)amino)-3′-(3-(2-fluorophenyl)ureido) biphenyl-2-carboxylic acid]	7.70
Cc1ccc(NC(=O)Nc2cc(-c3ccccc3C(=O)NS(C)(=O)=O)ccc2N(CC(C)C)CC(C)C)cc1 [Example 232, 4′-(Diisobutylamino)-N-(methylsulfonyl)-3′-(3-(p-tolyl)ureido)-[1,1′-biphenyl]-2-carboxamide]	6.18
Cc1ccc(NC(=O)Nc2cc(-c3ccccc3-c3nnn[nH]3)ccc2N2CC(C)CC(C)C2)cc1 (stereo not shown) [Example 235, 1-(4-(3,5-Dimethylpiperidin-1-yl)-2′-(1H-tetrazol-5-yl)-[1,1′-biphenyl]-3-yl)-3-(p-tolyl)urea]	6.10
CC(C)CN(c1ccc(-c2cc(F)ccc2C(=O)O)cc1NC(=O)Nc1ccccc1F)C1CCCC1 [Example 176, 4′-(cyclopentyl(isobutyl)amino)-5-fluoro-3′-(3-(2-fluorophenyl)ureido) biphenyl-2-carboxylic acid]	8.10
Cc1ccc(NC(=O)Nc2cc(-c3ccccc3-c3nnn[nH]3)ccc2N(CC2CC2)CC2CC2)cc1 [Example 66, 1-(4-(bis(cyclopropyl-methyl)amino)-2′-(1H-tetrazol-5-yl)biphenyl-3-yl)-3-p-tolylurea]	7.52
Cc1ccc(NC(=O)Nc2cc(-c3ccccc3-c3nnn[nH]3)ccc2N(CCC(C)C(F)(F)F)C2CCCCC2)cc1 (stereo not shown) [Example 190, 1-(4-(cyclohexyl(4,4,4-trifluoro-3-methylbutyl)amino)-2′-(1H-tetrazol-5-yl)-[1,1′-biphenyl]-3-yl)-3-(p-tolyl)urea]	7.10
Cc1ccc(NC(=O)Nc2cc(-c3ccccc3C(=O)O)ccc2N(CC(C)C)CC2CC2)cc1 [Example 93, 4′-((cyclopropylmethyl) (isobutyl)amino)-3′-(3-p-tolylureido) biphenyl-2-carboxylic acid]	7.10
CC(C)CN(CC(C)C)c1ccc(-c2ccccc2-c2nnn[nH]2)cc1NC(=O)NC1CCCCC1 [Example 140, 1-cyclohexyl-3-(4-(diisobutylamino)-2′-(1H-tetrazol-5-yl)biphenyl-3-yl)urea]	5.53

Other lines, results leading:

pIC50	Structure (SMILES)
6.52	O=C(Nc1cc(-c2ccccc2-c2nnn[nH]2)ccc1N(CCc1ccccc1)CCC(F)(F)F)Nc1ccccc1C(F)(F)F [Example 295, 1-(4-(Phenethyl(3,3,3-trifluoropropyl)amino)-2′-(1H-tetrazol-5-yl)biphenyl-3-yl)-3-(2-(trifluoromethyl)phenyl)urea]
6.21	O=C(Nc1cc(-c2ccccc2-c2nnn[nH]2)ccc1N(CCCC(F)(F)F)Cc1ccc(Cl)cc1)Nc1ccccc1C(F)(F)F [Example 321, 1-(4-((4-chlorobenzyl)(4,4,4-trifluorobutyl)amino)-2′-(1H-tetrazol-5-yl)-[1,1′-biphenyl]-3-yl)-3-(2-(trifluoromethyl)phenyl)urea]
7.05	Cc1ccc(NC(=O)Nc2cc(-c3ccccc3C(=O)O)ccc2N(CC(C)C)CC(F)(F)F)cc1 [Example 474]
5.65	CC(C)CN(CC(C)C)c1ccc(-c2ccccc2-c2nn[nH]n2)cc1NC(=O)NC(C)(C)Cc1ccc(F)cc1 [Example 240, 1-(4-(diisobutylamino)-2′-(2H-tetrazol-5-yl)-[1,1′-biphenyl]-3-yl)-3-(1-(4-fluorophenyl)-2-methylpropan-2-yl)urea]
6.60	O=C(Nc1ccc(C2CC2)cc1)Nc1cc(-c2ccccc2-c2nnn[nH]2)ccc1N(CCC(F)(F)F)Cc1ccc(F)cc1 [Example 350, 1-(4-cyclopropylphenyl)-3-(4-((4-fluorobenzyl)(3,3,3-trifluoropropyl)amino)-2′-(1H-tetrazol-5-yl)-[1,1′-biphenyl]-3-yl)urea]
6.28	O=C(Nc1ccc(OC(F)(F)F)cc1)Nc1cc(-c2ccccc2-c2nnn[nH]2)ccc1N1CCC(c2ccccc2)C1 (racemic) [Example 369, (±)-1-(4-(3-Phenylpyrrolidin-1-yl)-2′-(1H-tetrazol-5-yl)-[1,1′-biphenyl]-3-yl)-3-(4-(trifluoromethoxy)phenyl)urea]
5.30	CC(C)CN(CC(C)C)c1ccc(-c2ccccc2-c2nnn[nH]2)cc1NC(=O)Nc1ccc(F)c(S(C)(=O)=O)c1 [Example 279, 1-(4-(diisobutylamino)-2′-(1H-tetrazol-5-yl)-[1,1′-biphenyl]-3-yl)-3-(4-fluoro-3-(methylsulfonyl)phenyl) urea]
5.35	CC(C)CN(CC(C)C)c1ccc(-c2ccccc2-c2nnn[nH]2)cc1NC(=O)Nc1cccc(S(N)(=O)=O)c1 [Example 266, 3-(3-(4-(diisobutylamino)-2′-(1H-tetrazol-5-yl)-[1,1′-biphenyl]-3-yl)ureido) benzenesulfonamide]
6.12	CC(C)CN(CC(C)C)c1ccc(-c2ccccc2-c2nnn[nH]2)cc1NC(=O)Nc1ccccn1 [Example 238, 1-(4-(Diisobutylamino)-2′-(1H-tetrazol-5-yl)-[1,1′-biphenyl]-3-yl)-3-(pyridin-2-yl)urea]
5.43	O=C(Nc1ccc(F)nc1)Nc1cc(-c2ccccc2-c2nnn[nH]2)ccc1N1CCC(c2ccccc2)C1 (racemic) [Example 371, (±)-1-(6-Fluoropyridin-3-yl)-3-(4-(3-phenylpyrrolidin-1-yl)-2′-(1H-tetrazol-5-yl)-[1,1′-biphenyl]-3-yl)urea]
8.39	Cc1ccc(NC(=O)Nc2cc(-c3ccccc3-c3nnn[nH]3)ccc2N(Cc2ccccc2)CC(C)C)cc1 [Example 292, 1-(4-(benzyl(isobutyl)amino)-2′-(1H-tetrazol-5-yl)-[1,1′-biphenyl]-3-yl)-3-(p-tolyl)urea]
7.52	CC(C)CN(CC(C)C)c1ccc(-c2ccccc2-c2nnn[nH]2)cc1NC(=O)Nc1ccc(-c2cnco2)cc1 [Example 255, 1-(4-(diisobutylamino)-2′-(1H-tetrazol-5-yl)-[1,1′-biphenyl]-3-yl)-3-(4-(oxazol-5-yl)phenyl)urea]
8.56	CC(C)CN(CC(C)C)c1ccc(-c2ccccc2-c2nnn[nH]2)cc1NC(=O)Nc1cccc(N=[N+]=[N-])c1 [Example 257, 1-(3-azidophenyl)-3-(4-(diisobutylamino)-2′-(1H-tetrazol-5-yl)-[1,1′-biphenyl]-3-yl)urea]
7.40	Cc1ccc(NC(=O)Nc2cc(-c3ccccc3-c3nnn[nH]3)ccc2N(CCC(F)(F)F)Cc2ccccn2)cc1 [Example 506, 1-(4-((pyridin-2-ylmethyl)(3,3,3-trifluoropropyl)amino)-2′-(1H-tetrazol-5-yl)-[1,1′-biphenyl]-3-yl)-3-(p-tolyl)urea]
